According to patent EP0652009A1, “Identification and use of protease inhibitors” (ELI LILLY AND COMPANY, priority 1993, dated 1995):
Like-named read-outs stand apart in the source and are kept apart here. Non-standard residues stand in square brackets, D forms with d. Residues, ends and D or L forms follow the SMILES beside them. Sta = CC(C)C[C@H](N)[C@@H](O)CC(=O)O; N(iPr)Gly = CC(C)NCC(=O)O

How the values were obtained:
Assay type in all cases: biochemical
Human liver cathepsin D [1] = target: T1, Human liver cathepsin D (Homo sapiens, UniProt P07339); test: Assay 2: cathepsin D inhibition activity (non-cellular fluorometric assay); set-up: Human liver cathepsin D (Athens Research and Technology, Athens, GA); purchased Athens Research and Technology, Athens, GA; host or cells: human liver (by the product's printed name)
Method: (§1) A second non-cellular assay for determining in vitro aspartyl protease inhibitory activity utilizes a microtiter plate, where a suitable aspartyl protease, such as cathepsin D is added to each well together with controls. A suitable fluorometric substrate is added to each well. The resultant reaction mixture is allowed to react for a preselected time, e.g., 30 minutes. After enzyme activity is terminated, the substrate or its product may be determined fluorometrically and then the protease inhibition activity may be calculated based on the rates of substrate turnover. This assay is exemplified in Assay 2, below.
(§2) A fluorometric assay was adapted from the method disclosed by Murakami et al., (1981) Anal. Biochem. 110:232-239 for measuring renin activity. Human liver cathepsin D (Athens Research and Technology, Athens, GA) was diluted in assay buffer, 200mM NaOAc, pH 4.5, 150mM NaCl to 500 ng/mL and then 100 µL of this cathepsin D solution was added to each well of a 96 well plate with the exception of control wells which received just 100 µL of assay buffer. Compound stocks were prepared by dissolving an aspartyl protease inhibitor in DMSO for each concentration tested in the assay and then 5 µL of compound stock was added to each of the wells prepared above. Blank and enzyme control wells each received 5 µL of the DMSO vehicle.
(§3) Following a ten minute incubation at 25°C to allow enzyme/compound interaction, 5 µL of 500µM fluorometric substrate (Suc-Arg-Pro-Phe-His-Leu-Leu-Val-Try-AMC [SEQ ID NO:4], Bachem Biosciences, Philadelphia, PA) in DMSO was added per well to initiate the reaction. After incubation at 37°C for 30 minutes, cathepsin D activity was terminated by the addition of 100 µL per well of 400 mU/mL microsomal leucine aminopeptidase (EC 3.4.11.2, Sigma, St. Louis, MO) in 1M Tris-HCl, pH 8.0.
(§4) The plates were then analyzed in a fluorometer (CytoFluor 2350, Millipore, Bedford, MA) with an excitation wavelength of 360nm and an emission wavelength of 460nm, in order to check for background fluorescence due to test compounds. Following a two hour incubation at 37°C, to allow the aminopeptidase to release the fluorophore, 7-amido-4-methylcoumarin (AMC) from the products of cathepsin D cleavage, the plates were again analyzed in the fluorometer. In order to check for potential false positives, i.e., inhibitors of microsomal leucine aminopeptidase, residual aminopeptidase activity was monitored directly in each well by the addition of 20 µL/well of 2.5mM Leu-pNA (Bachem Biosciences, Philadelphia, PA) in 10% DMSO. Aminopeptidase activity was measured as an increase in the absorbance at 405nm in a UVmax microplate reader (Molecular Devices, Menlo Park, CA).
(§5) The compounds prepared in Examples 9, 12, 13, 20-23, 23A, 24, 30, 41-43, 45, and 48 were assayed at 10 µg/mL for cathepsin D inhibition activity using Assay 2. Cathepsin D activity was linear under these conditions and the results are expressed as percent inhibition of the control activity in Assay Table 2, below. All results presented are the mean and standard deviation of at least four replicate assays. Assay Table 2
Target sequence in this assay (P07339 65-412): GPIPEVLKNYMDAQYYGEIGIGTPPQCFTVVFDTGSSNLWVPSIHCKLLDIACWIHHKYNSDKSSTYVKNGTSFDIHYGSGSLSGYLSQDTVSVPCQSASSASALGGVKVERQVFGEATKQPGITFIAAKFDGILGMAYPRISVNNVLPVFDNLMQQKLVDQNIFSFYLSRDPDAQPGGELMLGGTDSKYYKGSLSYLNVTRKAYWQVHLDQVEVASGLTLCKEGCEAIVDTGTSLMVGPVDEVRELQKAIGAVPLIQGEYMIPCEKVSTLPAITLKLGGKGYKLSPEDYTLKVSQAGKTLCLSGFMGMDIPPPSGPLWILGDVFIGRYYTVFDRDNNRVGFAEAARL

Human brain cathepsin D = target: T2, Human brain cathepsin D (Homo sapiens, UniProt P07339); test: Assay 1: cathepsin D inhibition activity (non-cellular assay, porcine renin tetradecapeptide substrate, RP-HPLC); settings: purified human brain cathepsin D, pH 4.5, 44 µM porcine renin tetradecapeptide, 37°C
T2 construct: Human brain cathepsin D was purified from frozen post-mortem cortex; from tissue; host or cells: human post-mortem brain cortex
T2 sequence (P07339 65-412): as above
Method: An example of a non-cellular assay that may be used to determine in vitro aspartyl protease inhibitory activity reacts partially purified human brain cathepsin D with a substrate, e.g., porcine renin tetradecapeptide. The resultant reaction mixture is divided into portions and each portion is incubated for a different period of time. After the reaction is stopped, the turnover of substrate in each portion is determined using reverse-phase HPLC. Protease inhibition activity may be calculated based on the rates of substrate turnover. This assay is exemplified in Assay 1, below. Human brain cathepsin D was purified from frozen post-mortem cortex substantially in accordance with the method of Nixon and Morotta, (1984) J. Neurochem. 43:507-516. The cortex material was prepared and applied to a DEAE-Sepharose® column. The flow through fraction was dialyzed against 50mM Tris-HCl, pH 7.5, and applied to concanavalin A Sepharose® and eluted with 50mM Tris, pH 7.5, 0.5M methyl α-D-mannopyranoside. The eluted cathepsin D activity was dialyzed against 25mM Tris, pH 7.5, and stored at -40°C (Con A pool) until use. For each assay, 50 μL of the Con A pool was diluted to 270 μL in 200mM sodium citrate, pH 4.5, 150mM sodium chloride (NaCl), and incubated for 10 minutes at 4°C with 15 μL of compound stock diluted in dimethylsulfoxide (DMSO). The substrate, porcine renin tetradecapeptide ([…] [SEQ ID NO:3], Bachem Bioscience, Inc., Philadelphia, PA), was added to each reaction mixture to yield a final concentration of 44 μM in a total volume of 300 μL. The samples were incubated at 37°C for 0, 10, 20, or 30 minutes, and then boiled for 5 minutes to stop the reaction. The samples were centrifuged in a microcentrifuge for 10 minutes at 14,000 rpm at 4°C. After centrifugation, 200 μL of each reaction was injected onto […] column (Vydac, Hesperia, CA) with a Perkin Elmer ISS 100 autosampler and eluted with a gradient eluent of 0-50% CH3CN in 0.1% CF3CO2H at 2 mL/min. Peptide product peaks were monitored at 220nm with a Perkin Elmer LC 95 detector and integrated with Rainin Dynamax software in order to quantitate activity.

Human liver cathepsin D [2] = target: T1, Human liver cathepsin D; test: Assay 2: cathepsin D inhibition activity (non-cellular fluorometric assay); set-up: Human liver cathepsin D (Athens Research and Technology, Athens, GA); purchased Athens Research and Technology, Athens, GA
Method: as §1, §2, §3, §4, §5
Target sequence in this assay (P07339 169-412 limits assumed): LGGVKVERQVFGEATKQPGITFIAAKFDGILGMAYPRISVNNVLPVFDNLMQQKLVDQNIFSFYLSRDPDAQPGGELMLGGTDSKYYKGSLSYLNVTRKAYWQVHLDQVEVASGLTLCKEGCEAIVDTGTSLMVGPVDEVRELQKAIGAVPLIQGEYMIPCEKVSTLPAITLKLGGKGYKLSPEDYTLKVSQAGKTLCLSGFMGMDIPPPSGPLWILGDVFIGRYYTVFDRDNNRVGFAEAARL
Target sequence in this assay (P07339 65-162 limits assumed): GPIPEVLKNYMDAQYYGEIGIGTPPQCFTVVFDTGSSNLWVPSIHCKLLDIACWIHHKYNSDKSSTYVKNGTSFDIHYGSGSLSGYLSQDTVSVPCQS

[3] = compound at 10 µg/mL, percent inhibition of control activity, mean and standard deviation of at least four replicate assays

Structure (SMILES)	inhibition at 10 µg/mL (Human liver cathepsin D [1])	IC50 (Human brain cathepsin D)	also measured
CC(C)C[C@H](NC(=O)[C@@H](NC(=O)CN)C(C)C)[C@@H](O)CC(=O)N[C@@H](C)C(=O)N[C@H](C(=O)O)[C@@H](C)O [Example 45, Gly-Val-Sta-Ala-Thr-OH] (H-GV[Sta]AT-OH)	30.6 ± 4.8%	> 250 nM	
CC(=O)NCC(=O)N[C@H](C(=O)N[C@H](C(=O)N[C@@H](CC(C)C)[C@@H](O)CC(=O)N[C@@H](C)C(=O)N[C@H](C(=O)O)[C@@H](C)O)C(C)C)C(C)C [Example 41, CH3C(O)-Gly-Val-Val-Sta-Ala-Thr-OH] (Ac-GVV[Sta]AT-OH)	98.3 ± 0.1%	4 nM	
CC[C@H](C)[C@H](NC(=O)C[C@H](O)[C@H](CC(C)C)NC(=O)[C@@H](NC(=O)CNC(C)C)C(C)C)C(=O)N[C@@H](C)C(=O)N[C@H](C(=O)O)[C@@H](C)O [Example 48, (CH3)2CH-Gly-Val-Sta-Ile-Ala-Thr-OH] (H-[N(iPr)Gly]V[Sta]IAT-OH)	79.9 ± 2.7%	> 250 nM	
Cc1cccc2ccc(C(=O)N[C@@H](CC(N)=O)C(=O)N[C@@H](Cc3ccccc3)[C@H](O)Cc3ccccc3C(=O)NC(C)(C)C)nc12 [Example 9, [1S-(1R*,4R*,5S*)]-N-(1-(2-Amino-2-oxoethyl)-2-oxo-3-aza-4-phenylmethyl-5-hydroxy-6-(2-(1-t-butylamino-1-oxomethyl)phenyl)hexyl)-8-methylquinolin-2-yl carboxamide]			inhibition at 10 µg/mL (Human liver cathepsin D [2]): 44.4 ± 1.9%
CC(C)C(NC(=O)C(Cc1cccc2ccccc12)NC(=O)OC(C)(C)C)C(=O)NC(Cc1ccccc1)C(O)Cc1ccccc1C(=O)NC(C)(C)C (stereo not drawn) [Example 23, [2R-(2R*,3S*,6S*,9S*)]-N-t-Butyl-2-[2-hydroxy-3-phenylmethyl-4,7-diaza-5,8-dioxo-6-(1-methylethyl)-9-N(t-butoxycarbonyl)amino-10-naphth-1-yl]decyl benzamide]			inhibition at 10 µg/mL (Human liver cathepsin D [2]; [3]): 96.3 ± 0.9%
CC(C)C[C@H](NC(=O)[C@@H](NC(=O)[C@@H](NC(=O)CN)C(C)C)C(C)C)[C@@H](O)CC(=O)N[C@@H](C)C(=O)N[C@H](C(=O)O)[C@@H](C)O [Example 43, Gly-Val-Val-Sta-Ala-Thr-OH] (H-GVV[Sta]AT-OH)	87.9 ± 2.4%	53 nM	
CC(C)C[C@H](NC(=O)[C@@H](NC(=O)[C@@H](NC(=O)CNC(C)C)C(C)C)C(C)C)[C@@H](O)CC(=O)N[C@@H](C)C(=O)N[C@H](C(=O)O)[C@@H](C)O [Example 42, (CH3)2CH-Gly-Val-Val-Sta-Ala-Thr-OH] (H-[N(iPr)Gly]VV[Sta]AT-OH)	89.5 ± 1.3%	8 nM	
Cc1ccc(C(=O)C2NCCc3ccccc32)cc1C(=O)N[C@@H](Cc1ccccc1)[C@H](O)CN1C[C@H]2CCCC[C@H]2C[C@H]1C(=O)NC(C)(C)C (relative stereo) [Example 30, [3S-(3R*,4aR*,8aR*,2'S*,3'R*)]-2-[2'-Hydroxy-3'-phenylmethyl-4'-aza-5'-oxo-5'-(3''-[1''',2''',3''',4'''-tetrahydroisoquinolin-1'''-ylcarbonyl]-6''-methyl)phenyl]pentyl-decahydroisoquinoline-3-N-t-butylcarboxamide]			Cathepsin D Inhibition (Human liver cathepsin D [2]; [3]): 69.2 ± 3.5%
CC(C)C(NC(=O)C(Cc1cccc2ccccc12)NC(=O)OC(C)(C)C)C(=O)NC(Cc1ccccc1)C(O)Cc1ccccc1C(=O)NC(C)(C)C (stereo not drawn) [Example 24, [2R-(2R*,3S*,6S*,9R*)]-N-t-Butyl-2-[2-hydroxy-3-phenylmethyl-4,7-diaza-5,8-dioxo-6-(1-methylethyl)-9-N(t-butoxycarbonyl)amino-10-naphth-1-yl]decyl benzamide]			Cathepsin D Inhibition (Human liver cathepsin D [2]; [3]): 92.7 ± 0.5%
